Data reported in US20050197338A1, “Substituted pyrazole urea compounds for the treatment of inflammation” (priority 2003, published 2005).

Each compound was assayed against T1, human IKK-2 (rhIKK-2 homodimer) (Homo sapiens, UniProt O14920) (assay: IKK-2 Resin Enzyme Assay (Human IKK-2 Enzyme Assay)). Settings: human IKK-2, resin enzyme assay; read-out: IC50 (μM) hIKK-2.
T1 construct: FLAG (DYKDDDDKD) (C); made in house; host or cells: insect cells (baculovirus, pFastBac)
T1 sequence (O14920 1-756): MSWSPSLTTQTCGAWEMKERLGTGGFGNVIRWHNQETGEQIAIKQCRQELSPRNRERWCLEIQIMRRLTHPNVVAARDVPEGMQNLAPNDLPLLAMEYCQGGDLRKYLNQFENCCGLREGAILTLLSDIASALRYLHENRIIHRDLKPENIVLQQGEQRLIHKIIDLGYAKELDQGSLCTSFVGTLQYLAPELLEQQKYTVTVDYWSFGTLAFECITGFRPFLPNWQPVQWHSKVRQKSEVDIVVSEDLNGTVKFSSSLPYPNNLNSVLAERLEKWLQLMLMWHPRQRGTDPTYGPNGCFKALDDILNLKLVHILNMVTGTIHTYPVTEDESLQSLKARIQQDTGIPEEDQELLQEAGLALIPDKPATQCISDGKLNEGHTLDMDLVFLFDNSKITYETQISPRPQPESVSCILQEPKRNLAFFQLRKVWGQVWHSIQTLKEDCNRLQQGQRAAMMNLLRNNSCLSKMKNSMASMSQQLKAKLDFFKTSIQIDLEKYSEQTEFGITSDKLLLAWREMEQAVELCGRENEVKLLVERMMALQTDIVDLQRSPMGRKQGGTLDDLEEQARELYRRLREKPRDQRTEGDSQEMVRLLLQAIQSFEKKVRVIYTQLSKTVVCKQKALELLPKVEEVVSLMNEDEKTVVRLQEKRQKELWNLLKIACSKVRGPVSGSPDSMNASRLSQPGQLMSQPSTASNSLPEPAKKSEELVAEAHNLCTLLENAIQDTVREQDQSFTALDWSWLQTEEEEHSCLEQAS
Format: biochemical
Excerpt: Materials: SAM^2™96 Biotin capture plates were from Promega. Anti-FLAG affinity resin, FLAG-peptide, NP-40 (Nonidet P-40), BSA, ATP, ADP, AMP, LPS (E. coli serotype 0111:B4), and dithiothreitol were obtained from Sigma Chemicals. Antibodies specific for NEMO (IKK-γ) (FL-419), IKK-1 (H-744), IKK-2(H-470) and IκBa(C-21) were purchased from Santa Cruz Biotechnology. Ni-NTA resin was purchased from Qiagen. Peptides were purchased from American Peptide Company. Protease inhibitor cocktail tablets were from Boehringer Mannheim. Sephacryl S-300 column was from Pharmacia LKB Biotechnology. Centriprep-10 concentrators with a molecular weight cutoff of 10 kDa and membranes with molecular weight cut-off of 30 kDa were obtained from Amicon. [γ-^33P] ATP (2500 Ci/mmol) and [γ-^32P] ATP (6000 Ci/mmol) were purchased from Amersham. The other reagents used were of the highest grade commercially available.
Cloning and Expression: cDNAs of human IKK-1 and IKK-2 were amplified by reverse transcriptase-polymerase chain reaction from human placental RNA (Clonetech). hlKK-1 was subcloned into pFastBac HTa (Life Technologies) and expressed as N-terminal His6-tagged fusion protein. The hlKK-2 cDNA was amplified using a reverse oligonucleotide primer which incorporated the peptide sequence for a FLAG-epitope tag at the C-terminus of the IKK-2 coding region (DYKDDDDKD). The hlKK-2:FLAG cDNA was subcloned into the baculovirus vector pFastBac. The rhIKK-2 ([…]) mutant was constructed in the same vector used for wild type rhIKK-2 using a QuikChange™ mutagenesis kit (Stratagene). Viral stocks of each construct were used to infect insect cells grown in 40 L suspension culture. […] Cell lysates were stored at −80° C. until purification of the recombinant proteins was undertaken as described below.
Enzyme Isolation: All purification procedures were carried out at 4° C. unless otherwise noted. Buffers used are: buffer A: 20 mM Tris-HCl, pH 7.6, containing 50 mM NaCl, 20 mM NaF, 20 mM β-Glycerophosphate, 500 μM sodium orthovanadate, 2.5 mM metabisulfite, 5 mM benzamidine, 1 mM EDTA, 0.5 mM EGTA, 10% glycerol, 1 mM DTT, 1× Complete™ protease inhibitors; buffer B: same as buffer A, except 150 mM NaCl, and buffer C: same as buffer A, except 500 mM NaCl.
Isolation of rhIKK-2 homodimer: A 10-liter culture of baculovirus-expressing IKK-2 tagged with FLAG peptide was centrifuged and the cell pellet (MOI=0.1 and 1=72 h) was re-suspended in buffer A. These cells were microfluidized, and centrifuged at 100,000×g for 45 min. Supernatant was passed over a G-25 column equilibrated with Buffer A. Protein peak was collected and incubated with anti-FLAG affinity resin on a rotator overnight in buffer B. The resin was washed in batch with 10-15 bed volumes of buffer C. Washed resin was poured into a column and rhIKK-2 homodimer was eluted using 5 bed volumes of buffer B containing FLAG peptide. 5 mM DTT, 0.1% NP-40 and BSA (concentrated to 0.1% in final amount) was added to the eluted enzyme before concentrating in using an Amicon membrane with a molecular weight cut-off of 30 kDa. Enzyme was aliquoted and stored at −80° C.
IKK-2 Resin Enzyme Assay: IKK-2 kinase activity was measured using a biotinylated IκBα peptide (Gly-Leu-Lys-Lys-Glu-Arg-Leu-Leu-Asp-Asp-Arg-His-Asp-Ser32-Gly-Leu-Asp-Ser36-Met-Lys-Asp-Glu-Glu) (American Peptide Co.). 20 μL of the standard reaction mixture contained 5 μM biotinylated IκBα peptide, 0.1 μCi/reaction [γ-^33P] ATP (Amersham) (about 1×10^5 cpm), 1 μM ATP (Sigma), 1 mM DTT (Sigma), 2 mM MgCl2 (Sigma), 2 mM MnCl2 (Sigma), 10 mM NaF (Sigma), 25 mM Hepes (Sigma) buffer, pH 7.6 and 20 μL enzyme solution and 10 μL inhibitor in a final volume of 50 μL. After incubation at 25° C. for 30 min, 150 μL resin (Dowex anion-exchange resin AG1X8 200-400 mesh) in 900 mM formate, pH 3.0 was added to each well to stop the reaction. Resin was allowed to settle for 1 h and 50 μL of supernatant was removed to a Micolite-2 flat bottom plate (Dynex). […]
For `NC(=O)Nc1cn(-c2cccc(-c3cccc4ccccc34)c2)nc1C(N)=O` [Example 360, 4-[(aminocarbonyl)amino]-1-[3-(1-naphthyl)phenyl]-1H-pyrazole-3-carboxamide], the IC50 was > 20 µM. In the case of `CC(C)c1ccc(-c2cccc(-n3cc(NC(N)=O)c(C(N)=O)n3)c2)cc1` [Example 353, 4-[(aminocarbonyl)amino]-1-(4′-isopropyl-1,1′-biphenyl-3-yl)-1H-pyrazole-3-carboxamide], the IC50 is reported as > 20 µM. `NC(=O)Nc1cn(-c2cccc(-c3ccc(C(=O)NCC(=O)O)cc3)c2)nc1C(N)=O` [Example 85, N-[(3′-{3-(aminocarbonyl)-4-[(aminocarbonyl)amino]-1H-pyrazol-1-yl}-1,1′-biphenyl-4-yl)carbonyl]glycine] showed an IC50 of 0.58 µM. `NC(=O)Nc1cn(-c2ccc(Sc3ccccc3F)cc2)nc1C(N)=O` [Example 190, 1-(1-(4-(2-fluorophenylthio)phenyl)-3-carbamoyl-1H-pyrazol-4-yl)urea] gave an IC50 of 0.831 µM. For `NC(=O)Nc1cn(-c2ccc(-c3ccc[nH]3)cc2)nc1C(N)=O` [Example 26, 4-[(aminocarbonyl)amino]-1-[4-(1H-pyrrol-2-yl)phenyl]-1H-pyrazole-3-carboxamide], the IC50 was 0.59 µM. With `NC(=O)Nc1cn(-c2ccc(B(O)O)cc2)nc1C(N)=O` [Example 337, 4-{3-(aminocarbonyl)-4-[(aminocarbonyl)amino]-1H-pyrazol-1-yl}phenylboronic acid] the IC50 was 0.75 µM. `CCCCc1ccc(-c2cccc(-n3cc(NC(N)=O)c(C(N)=O)n3)c2)cc1` [Example 364, 4-[(aminocarbonyl)amino]-1-(4′-butyl-1,1′-biphenyl-3-yl)-1H-pyrazole-3-carboxamide] was tested, and the IC50 was 16.2 µM. With `Cc1cc(-c2ccccc2O)ccc1-n1cc(NC(N)=O)c(C(N)=O)n1` [Example 235, 4-[(aminocarbonyl)amino]-1-(2′-hydroxy-3-methyl-1,1′-biphenyl-4-yl)-1H-pyrazole-3-carboxamide] the IC50 was 13.2 µM. In the case of `NC(=O)Nc1cn(-c2ccc(-c3ccc(C(=O)NCc4cccc(F)c4)c(F)c3)cc2)nc1C(N)=O` [Example 156, 4-[(aminocarbonyl)amino]-1-(3′-fluoro-4′-{[(3-fluorobenzyl)amino]carbonyl}-1,1′-biphenyl-4-yl)-1H-pyrazole-3-carboxamide], the IC50 is reported as 0.61 µM. With `Cc1cc(-n2cc(NC(N)=O)c(C(N)=O)n2)ccc1-c1ccc(F)cc1OCC#N` [Example 244, 1-(2′-Cyanomethoxy-4′-fluoro-2-methyl-biphenyl-4-yl)-4-ureido-1H-pyrazole-3-carboxylic acid amide] the IC50 was 0.866 µM. `NC(=O)Nc1cn(-c2cccc(-c3ccc(Cl)cc3Cl)c2)nc1C(N)=O` [Example 369, 4-[(aminocarbonyl)amino]-1-(2′,4′-dichloro-1,1′-biphenyl-3-yl)-1H-pyrazole-3-carboxamide] gave an IC50 of 16.7 µM. In the case of `NC(=O)Nc1cn(-c2ccc(-c3cccc(OC(F)(F)F)c3)cc2)nc1C(N)=O` [Example 24, 4-[(aminocarbonyl)amino]-1-[3′-(trifluoromethoxy)-1,1′-biphenyl-4-yl]-1H-pyrazole-3-carboxamide], the IC50 is reported as 7.73 µM. For `Cc1ccc(-c2ccc(-n3cc(NC(N)=O)c(C(N)=O)n3)cc2)cc1` [Example 103], the IC50 was > 20 µM. In the case of `CC(C)c1ccc(-n2cc(NC(N)=O)c(C(N)=O)n2)cc1` [Example 216, 4-[(aminocarbonyl)amino]-1-(4-isopropylphenyl)-1H-pyrazole-3-carboxamide], the IC50 is reported as 0.159 µM. With `NC(=O)Nc1cn(-c2ccc(-c3cccc(-n4cccn4)c3)cc2)nc1C(N)=O` [Example 130, 4-[(aminocarbonyl)amino]-1-[3′-(1H-pyrazol-1-yl)-1,1′-biphenyl-4-yl]-1H-pyrazole-3-carboxamide] the IC50 was 1.79 µM. With `CC(C)Cc1ccc(-c2ccc(-n3cc(C(N)=O)c(NC(N)=O)n3)cc2)cc1` [Example 127] the IC50 was > 20 µM. In the case of `NC(=O)Nc1cn(-c2ccc(-c3cccc(OCc4ccncc4)c3)cc2)nc1C(N)=O` [Example 171, 4-[(aminocarbonyl)amino]-1-[3′-(pyridin-4-ylmethoxy)-1,1′-biphenyl-4-yl]-1H-pyrazole-3-carboxamide], the IC50 is reported as 6.84 µM. `NC(=O)Nc1cn(-c2ccc(-c3ccncc3)cc2)nc1C(N)=O` [Example 40, 4-[(aminocarbonyl)amino]-1-(4-pyridin-4-ylphenyl)-1H-pyrazole-3-carboxamide] was tested, and the IC50 was 0.351 µM. In the case of `NC(=O)Nc1cn(-c2ccc(-c3ccc(C(=O)NC4CCCc5ccccc54)c(F)c3)cc2)nc1C(N)=O` (stereo not shown) [Example 159, 4-[(aminocarbonyl)amino]-1-{3′-fluoro-4′-[(1,2,3,4-tetrahydronaphthalen-1-ylamino)carbonyl]-1,1′-biphenyl-4-yl}-1H-pyrazole-3-carboxamide], the IC50 is reported as 5.97 µM. `NC(=O)Nc1cn(-c2ccc(S(=O)(=O)C3CCCC3)cc2)nc1C(N)=O` [Example 287, 1-(3-carbamoyl-1-(4-(cyclopentylsulfonyl)phenyl)-1H-pyrazol-4-yl)urea] was tested, and the IC50 was 0.187 µM. For `NC(=O)Nc1nn(-c2ccc(-c3ccc4ccccc4c3)cc2)cc1C(N)=O` [Example 123], the IC50 was > 20 µM. Compound `NC(=O)Nc1cn(-c2ccc(-c3ccc(C(=O)O)c(F)c3)cc2F)nc1C(N)=O` [Example 248, 4′-{3-(aminocarbonyl)-4-[(aminocarbonyl)amino]-1H-pyrazol-1-yl}-3,3′-difluoro-1,1′-biphenyl-4-carboxylic acid] has an IC50 of 0.386 µM. `NC(=O)Nc1cn(-c2cccc(-c3ccc(C(=O)O)cc3)c2)nc1C(N)=O` [Example 58, 3′-{3-(aminocarbonyl)-4-[(aminocarbonyl)amino]-1H-pyrazol-1-yl}-1,1′-biphenyl-4-carboxylic acid] was tested, and the IC50 was 2.81 µM. For `NC(=O)Nc1nn(-c2ccc(-c3ccc(Cl)c(Cl)c3)cc2)cc1C(N)=O` [Example 136], the IC50 was > 20 µM. With `CS(=O)(=O)c1ccc(-c2cccc(-n3cc(NC(N)=O)c(C(N)=O)n3)c2)cc1` [Example 374, 4-[(aminocarbonyl)amino]-1-[4′-(methylsulfonyl)-1,1′-biphenyl-3-yl]-1H-pyrazole-3-carboxamide] the IC50 was 0.544 µM.
